Measurements as given in patent publication US11708344B2, “Flavone derivatives for the treatment and prophylaxis of hepatitis B virus disease” (Hoffmann-La Roche Inc., priority 2018, dated 2023).

Key:
[1] = system: HBeAg (surrogate marker for cccDNA) in HepDES19 cells; test: Engineered HepDES19 primary screen assay (HBeAg ELISA); format: cell-based, HBV; conditions: Hepatitis B virus, HepDES19, 120 h, read-out: IC50 (HBeAg level, HepDES19 primary screen assay), HepDES19 cells, 5 days compound incubation, HBeAg ELISA
Source text: The assay was employed to screen for novel cccDNA inhibitors. HepDES19 is a cccDNA-producing cell line. In this cell line, HBeAg in the cell culture supernatant as surrogate marker, as HBeAg production depends on cccDNA level and activity. HepDES19 is an engineered cell line which contains a 1.1 unit length HBV genome, and pgRNA transcription from the transgene is controlled by Tetracycline (Tet). In the absence of Tet, pgRNA transcription will be induced, but HBV e antigen (HBeAg) could not be produced from this pgRNA due to very short leader sequence before the HBeAg start codon and the start codon is disrupted. Only after cccDNA is formed, the missing leader sequence and start codon mutation would be restored from the 3′-terminal redundancy of pgRNA, and then HBeAg could be synthesized. Therefore, HBeAg could be used as a surrogate marker for cccDNA (Zhou, T. et al., Antiviral Res. (2006), 72(2), 116-124; Guo, H. et al., J. Virol. (2007), 81(22), 12472-12484).
HepDES19 cells were seeded at 2×10^6 cells per T150 flask and cultured with the culture medium (Dulbecco's Modified Eagle Medium: Nutrient Mixture F-12 [DMEM-F12, Gibco Cat. 11320-82], 10% Fetal Bovine Serum [FBS, Clontech Cat. 631101], 0.1 mM Non-Essential Amino Acids Solution [NEAA, Gibco Cat. 11140-050], 50 μg/mL Penicillin-Streptomycin [PS, Invitrogen Cat. 15140-163], 500 μg/mL Geneticin [G418, Invitrogen Cat. 10131-027]) containing 3 μg/mL Tet (Sigma, Cat. 87128) for 5 days. Cells were then seeded at 4×10^6 cells per T150 in the same culture medium as described above in the absence of Tet for 8 days. Cells were then harvested and frozen at density of 2×10^6 cells per mL. For compound testing, the frozen cells were thawed and seeded into 96-well plates at a density of 6×10^4 cells per well. At 24 hours after seeding, half log serial dilutions of compounds made with Dimethyl sulfoxide (DMSO, Sigma, Cat. D2650) were further diluted with the same culture medium as described above before they were added to the cells to reach desired final compound concentrations and 1% DMSO concentration. Plates were then incubated at 37° C. for another 5 days before measurement of HBeAg level and cell viability. […] HBeAg level were measured with enzyme-linked immunosorbent assay (ELISA) kit (Shanghai Kehua Diagnostic Medical Products Co., Ltd). Cell viability was assessed using Cell Counting Kit-8 (DonJindo, Cat. CK04-20). IC50 values were derived from the dose-response curve using 4 parameter logistic curve fit method.
The compounds of the present invention were tested for their capacity to inhibit extracellular HBeAg level as described herein.

[2] = Human microsome stability assay; format: in vitro ADME; conditions: human liver microsomes, 1 μM test compound, 0.5 mg/mL microsomal protein, 37° C., pH 7.4, 0-30 minutes
Description: The human microsomal stability assay is used for early assessment of metabolic stability of a test compound in human liver microsomes.
Human liver microsomes (Cat. NO.: 452117, Corning, USA; Cat. NO.: H2610, Xenotech, USA) were preincubated with test compound for 10 minutes at 37° C. in 100 mM potassium phosphate buffer, pH 7.4. The reactions were initiated by adding NADPH regenerating system. The final incubation mixtures contained 1 μM test compound, 0.5 mg/mL liver microsomal protein, 1 mM MgCl2, 1 mM NADP, 1 unit/mL isocitric dehydrogenase and 6 mM isocitric acid in 100 mM potassium phosphate buffer, pH 7.4. After incubation times of 0, 3, 6, 9, 15 and 30 minutes at 37° C., 300 μL of cold ACN (including internal standard) was added to 100 μL incubation mixture to terminate the reaction. Following precipitation and centrifugation, the amount of compound remaining in the samples was determined by LC-MS/MS. Controls of no NADPH regenerating system at zero and 30 minutes were also prepared and analyzed.

For `NS(=O)(=O)CCCOc1cc(C(F)(F)F)ccc1-c1cc(=O)c2cccc(Cl)c2o1` [Example B072, 3-[2-(8-chloro-4-oxo-chromen-2-yl)-5-(trifluoromethyl)phenoxy]propane-1-sulfonamide], the IC50 [1] was 0.95 µM and the “Clearance of Human microsome” value [2] was 8.89 mL/min/kg.

With `CCOc1ccc(-c2cc(=O)c3cccc(Cl)c3o2)c(OCCO[C@H]2C[C@@H](C(=O)O)C2)c1` [Example C035-A, Cis-3-[2-[2-(8-chloro-4-oxo-chromen-2-yl)-5-ethoxy-phenoxy]ethoxy]cyclobutanecarboxylic acid] the IC50 [1] was 12.5 µM and the “Clearance of Human microsome” value [2] was 8.64 mL/min/kg.

With `Cc1cc(Br)c(OCCC(=O)O)c(-c2cc(=O)c3cccc(Cl)c3o2)c1` [Example A018, 3-[2-bromo-6-(8-chloro-4-oxo-chromen-2-yl)-4-methyl-phenoxy]propanoic acid] the IC50 [1] was 3.32 µM and the “Clearance of Human microsome” value [2] was 6.15 mL/min/kg.

For `CCc1ccc(-c2cc(=O)c3cccc(Cl)c3o2)c(O[C@H]2C[C@H](C(=O)O)C2)c1` [Example B019-B, Trans-3-[2-(8-chloro-4-oxo-chromen-2-yl)-5-ethyl-phenoxy]cyclobutanecarboxylic acid], the IC50 [1] was 3.63 µM and the “Clearance of Human microsome” value [2] was 8.92 mL/min/kg.

In the case of `O=c1cc(-c2ccc(C(F)(F)F)cc2O[C@H]2C[C@@H](C(=O)NS(=O)(=O)C3CC3)C2)oc2c(Cl)cccc12` [Example B043-A, cis-3-[2-(8-chloro-4-oxo-chromen-2-yl)-5-(trifluoromethyl)phenoxy]-N-cyclopropylsulfonyl-cyclobutanecarboxamide], the IC50 [1] is reported as 1.4 µM and the “Clearance of Human microsome” value [2] is reported as 6.15 mL/min/kg.

With `COc1cc(-c2cc(=O)c3cccc(Cl)c3o2)c(OCCC(=O)O)cc1C` [Example A015, 3-[2-(8-chloro-4-oxo-chromen-2-yl)-4-methoxy-5-methyl-phenoxy]propanoic acid] the IC50 [1] was 11.1 µM and the “Clearance of Human microsome” value [2] was 6.15 mL/min/kg.

For `Cc1cc(-c2cc(=O)c3c(O)ccc(Cl)c3o2)c(O[C@H]2C[C@H](C(=O)O)C2)cc1Br` [Example B040-B, trans-3-[5-bromo-2-(8-chloro-5-hydroxy-4-oxo-chromen-2-yl)-4-methyl-phenoxy]cyclobutanecarboxylic acid], the IC50 [1] was 2.93 µM and the “Clearance of Human microsome” value [2] was 6.29 mL/min/kg.

With `Cc1ccc(-c2cc(=O)c3cccc(Cl)c3o2)c(OCC(=O)N2CCC[C@H]2C(=O)NS(C)(=O)=O)c1` [Example A093, (2S)-1-[2-[2-(8-chloro-4-oxo-chromen-2-yl)-5-methyl-phenoxy]acetyl]-N-methylsulfonyl-pyrrolidine-2-carboxamide] the IC50 [1] was 1.32 µM and the “Clearance of Human microsome” value [2] was 6.15 mL/min/kg.

In the case of `O=C(O)[C@H]1CCN(C(=O)COCCOc2cc(Br)ccc2-c2cc(=O)c3cccc(Cl)c3o2)C1` [Example C112, (3S)-1-[2-[2-[5-bromo-2-(8-chloro-4-oxo-chromen-2-yl)phenoxy]ethoxy]acetyl]pyrrolidine-3-carboxylic acid], the IC50 [1] is reported as 11.4 µM and the “Clearance of Human microsome” value [2] is reported as 6.15 mL/min/kg.

With `CC(C)(COc1cc(C(F)(F)F)ccc1-c1cc(=O)c2cccc(Cl)c2o1)C(=O)O` [Example A062, 3-[2-(8-chloro-4-oxo-chromen-2-yl)-5-(trifluoromethyl)phenoxy]-2,2-dimethyl-propanoic acid] the IC50 [1] was 13 µM and the “Clearance of Human microsome” value [2] was 9.88 mL/min/kg.

In the case of `O=C(O)CCOc1cc(C(F)(F)F)ccc1-c1oc2c(Cl)cccc2c(=O)c1O` [Example A046, 3-[2-(8-chloro-3-hydroxy-4-oxo-chromen-2-yl)-5-(trifluoromethyl)phenoxy]propanoic acid], the IC50 [1] is reported as 7.86 µM and the “Clearance of Human microsome” value [2] is reported as 6.15 mL/min/kg.

With `Cc1cc(-c2cc(=O)c3cccc(Br)c3o2)c(OCCCOCC(=O)O)cc1Cl` [Example C018, 2-[3-[2-(8-bromo-4-oxo-chromen-2-yl)-5-chloro-4-methyl-phenoxy]propoxy]acetic acid] the IC50 [1] was 4.82 µM and the “Clearance of Human microsome” value [2] was 6.74 mL/min/kg.

With `COc1cc(-c2cc(=O)c3cccc(Cl)c3o2)c(OCCCC(=O)O)cc1Br` [Example A058, 4-[5-bromo-2-(8-chloro-4-oxo-chromen-2-yl)-4-methoxy-phenoxy]butanoic acid] the IC50 [1] was 0.549 µM and the “Clearance of Human microsome” value [2] was 6.15 mL/min/kg.

For `COc1cc(-c2cc(=O)c3cccc(Cl)c3o2)c(OCCOCC(=O)O)cc1Br` [Example C020, 2-[2-[5-bromo-2-(8-chloro-4-oxo-chromen-2-yl)-4-methoxy-phenoxy]ethoxy]acetic acid], the IC50 [1] was 5.55 µM and the “Clearance of Human microsome” value [2] was 6.15 mL/min/kg.

For `CC(CCOCC(=O)O)Oc1cc(C(F)(F)F)ccc1-c1cc(=O)c2cccc(Cl)c2o1` (centres unmarked) [Example C024, 2-[3-[2-(8-chloro-4-oxo-chromen-2-yl)-5-(trifluoromethyl)phenoxy]butoxy]acetic acid], the IC50 [1] was 0.909 µM and the “Clearance of Human microsome” value [2] was 6.15 mL/min/kg.

With `N[C@@H](COc1cc(C(F)(F)F)ccc1-c1cc(=O)c2cccc(Cl)c2o1)C(=O)O` [Example A095, (2S)-2-amino-3-[2-(8-chloro-4-oxo-chromen-2-yl)-5-(trifluoromethyl)phenoxy]propanoic acid] the IC50 [1] was 3.29 µM and the “Clearance of Human microsome” value [2] was 9.59 mL/min/kg.

With `O=C(O)CC1(COc2cc(Br)ccc2-c2cc(=O)c3cccc(Cl)c3o2)CC1` [Example A069, 2-[1-[[5-bromo-2-(8-chloro-4-oxo-chromen-2-yl)phenoxy]methyl]cyclopropyl]acetic acid] the IC50 [1] was 2.73 µM and the “Clearance of Human microsome” value [2] was 6.15 mL/min/kg.

With `Cc1cc(-c2cc(=O)c3cccc(Cl)c3o2)c(OCC(=O)O)cc1Br` [Example A073, 2-[5-bromo-2-(8-chloro-4-oxo-chromen-2-yl)-4-methyl-phenoxy]acetic acid] the “Clearance of Human microsome” value [2] was 6.15 mL/min/kg.

Work on `COc1cc(O[C@H]2C[C@@H](C(=O)NS(C)(=O)=O)C2)c(-c2cc(=O)c3cccc(Cl)c3o2)cc1Br` [Example B055-A, Cis-3-[4-bromo-2-(8-chloro-4-oxo-chromen-2-yl)-5-methoxy-phenoxy]-N-methylsulfonyl-cyclobutanecarboxamide] yielded an IC50 [1] of 3.59 µM.

Compound `O=C(O)[C@@H]1C[C@H](Oc2cc(OC(F)(F)F)ccc2-c2cc(=O)c3cccc(Cl)c3o2)CN1S(=O)(=O)c1ccccc1` [Example B085, (2S,4S)-1-(benzenesulfonyl)-4-[2-(8-chloro-4-oxo-chromen-2-yl)-5-(trifluoromethoxy)phenoxy]pyrrolidine-2-carboxylic acid] has an IC50 [1] of 4.57 µM.

With `COc1ccc(OC[C@H]2C[C@@H](C(=O)O)C2)c(-c2cc(=O)c3cccc(Cl)c3o2)c1` [Example B027-A] the IC50 [1] was 2.47 µM.

With `O=c1cc(-c2ccc(Br)cc2OCCO[C@H]2C[C@H](C(=O)O)C2)oc2c(Cl)cccc12` [Example C003-B, tram-3-[2-[5-bromo-2-(8-chloro-4-oxo-chromen-2-yl)phenoxy]ethoxy]cyclobutanecarboxylic acid] the IC50 [1] was 1.34 µM.

Compound `CSc1ccc(-c2cc(=O)c3cccc(Cl)c3o2)c(OCCO[C@H]2C[C@@H](C(=O)O)C2)c1` [Example C064-A, Cis-3-[2-[2-(8-chloro-4-oxo-chromen-2-yl)-5-methylsulfanyl-phenoxy]ethoxy]cyclobutanecarboxylic acid] has an IC50 [1] of 1.94 µM.

For `Cc1ccc(-c2cc(=O)c3c(O)ccc(Cl)c3o2)c(O[C@H]2C[C@H](C(=O)O)C2)c1` [Example B037-B, Trans-3-[2-(8-chloro-5-hydroxy-4-oxo-chromen-2-yl)-5-methyl-phenoxy]cyclobutanecarboxylic acid], the IC50 [1] was 0.149 µM.
